# Patent publication US20260007684A1, “AMIDE DERIVATIVES FOR INHIBITING NLRP3 AND USES THEREOF” (Ventus Therapeutics U.S., Inc., priority 2023, published 2026)
# pIC50: −log10 of the molar value.
# Target: human NLRP3 (Homo sapiens (Human), UniProt Q96P20)
# Assay: Scintillation Proximity (SPA) NLRP3 Assay: displacement of 3H-MCC950
# Assay type: binding
# Conditions: SPA IC50, displacement of 3H-MCC950
# Sequence of human NLRP3 (Q96P20 whole entry): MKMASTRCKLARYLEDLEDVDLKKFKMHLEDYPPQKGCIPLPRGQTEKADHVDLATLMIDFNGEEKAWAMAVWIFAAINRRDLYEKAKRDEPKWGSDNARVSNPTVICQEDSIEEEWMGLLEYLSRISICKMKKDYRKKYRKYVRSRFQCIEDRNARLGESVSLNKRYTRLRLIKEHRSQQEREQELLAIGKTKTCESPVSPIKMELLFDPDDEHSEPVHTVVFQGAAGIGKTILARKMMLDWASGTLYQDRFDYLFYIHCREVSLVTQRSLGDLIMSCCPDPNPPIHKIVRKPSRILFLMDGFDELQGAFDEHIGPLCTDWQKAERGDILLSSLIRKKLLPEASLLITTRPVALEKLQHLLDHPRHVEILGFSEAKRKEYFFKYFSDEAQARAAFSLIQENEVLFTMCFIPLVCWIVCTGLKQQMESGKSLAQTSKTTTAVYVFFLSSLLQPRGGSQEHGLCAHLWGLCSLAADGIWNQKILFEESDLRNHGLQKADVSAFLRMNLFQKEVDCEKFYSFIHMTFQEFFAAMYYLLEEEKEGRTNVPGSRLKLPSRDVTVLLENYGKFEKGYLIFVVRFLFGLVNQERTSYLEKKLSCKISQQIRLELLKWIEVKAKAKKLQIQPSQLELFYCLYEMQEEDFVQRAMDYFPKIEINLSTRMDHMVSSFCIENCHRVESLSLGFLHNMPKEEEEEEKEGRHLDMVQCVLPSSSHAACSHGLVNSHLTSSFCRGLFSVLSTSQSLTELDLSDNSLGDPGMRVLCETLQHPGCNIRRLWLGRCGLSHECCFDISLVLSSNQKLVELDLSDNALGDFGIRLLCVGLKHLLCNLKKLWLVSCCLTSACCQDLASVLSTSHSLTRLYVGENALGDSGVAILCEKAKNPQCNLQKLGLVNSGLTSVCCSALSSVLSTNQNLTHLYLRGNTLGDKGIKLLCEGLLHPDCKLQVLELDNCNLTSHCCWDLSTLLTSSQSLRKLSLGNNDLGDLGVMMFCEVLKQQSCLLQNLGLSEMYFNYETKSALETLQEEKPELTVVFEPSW
row,Structure (SMILES),pIC50
1,"C[C@@H]1C[C@H]2CC[C@@H]([C@@H](NC(=O)C3(c4ccc(C(F)(F)F)cc4)CC3)C1)N2c1nnn[nH]1 [104D*, N-((1S,2S,4S,6R)-4-methyl-9-(1H-tetrazol-5-yl)-9-azabicyclo[4.2.1]nonan-2-yl)-1-(4-(trifluoromethyl)phenyl)cyclopropane-1-carboxamide]",4.30 to 5.00
2,"O=C(N[C@@H]1CCC[C@H]2CC[C@@H]1N2c1nnn[nH]1)C1(c2ccc(C3CC3)cc2O)CC1 [93C*, N-((1S,2R,6S)-9-(1H-tetrazol-5-yl)-9-azabicyclo[4.2.1]nonan-2-yl)-1-(4-cyclopropyl-2-hydroxyphenyl)cyclopropane-1-carboxamide]",4.30 to 5.00
3,"O=C(N[C@H]1CCC[C@H]2CC[C@@H]1N2c1nnn[nH]1)C1(c2ccc(Cl)cc2)CC1 (single isomer, unassigned) [9D*, N-(9-(1H-tetrazol-5-yl)-9-azabicyclo[4.2.1]nonan-2-yl)-1-(4-chlorophenyl)cyclopropane-1-carboxamide]",4.30 to 5.00

# Same assay, conditions: displacement of 3H-MCC950; read-out: SPA IC50
row,Structure (SMILES),pIC50
1,"C[C@@H]1CCN(c2nnn[nH]2)C[C@@H](NC(=O)C2(c3ccc(C(F)(F)F)c(OC(F)F)c3)CC2)C1 (single isomer, unassigned) [54B*]",4.30 to 5.00
2,"C[C@H]1CCN(c2nnn[nH]2)C[C@@H](NC(=O)C2(c3ccc(Cl)cc3F)CC2)C1 (single isomer, unassigned) [56D*]",4.30 to 5.00
3,"C[C@@H]1CCN(c2nnn[nH]2)C[C@@H](NC(=O)C2(c3cnc(Cl)cc3O)CC2)C1 (single isomer, unassigned) [99B*]",5.00 to 6.00
4,"Cc1ccc(C2(C(=O)N[C@H]3C[C@@H](C)CCN(c4nnn[nH]4)C3)CC2)c(O)c1F (single isomer, unassigned) [22D*, 1-(3-fluoro-2-hydroxy-4-methylphenyl)-N-(5-methyl-1-(1H-tetrazol-5-yl)azepan-3-yl)cyclopropane-1-carboxamide]",5.00 to 6.00
5,"Cc1c(Cl)ccc(C2(C(=O)N[C@@H]3C[C@@H](C)CCN(c4nnn[nH]4)C3)CC2)c1O (single isomer, unassigned) [21C*, 1-(4-chloro-2-hydroxy-3-methylphenyl)-N-(5-methyl-1-(1H-tetrazol-5-yl)azepan-3-yl)cyclopropane-1-carboxamide]",< 4.00
6,"C[C@H]1C[C@H](NC(=O)C2(c3ccc(OC(F)F)cc3O)CC2)[C@@H]2CC[C@H]1N2c1nnn[nH]1 [43D*, N-((1S,2S,4S,5R)-4-methy1-8-(1H-tetrazol-5-yl)-8-azabicyclo[3.2.1]octan-2-yl)-1-(4-(difluoromethoxy)-2-hydroxyphenyl)cyclopropane-1-carboxamide]",4.30 to 5.00
7,"Cc1cc(C2(C(=O)N[C@@H]3C[C@@H](C)CCN(c4nnn[nH]4)C3)CC2)ccc1C(F)(F)F (single isomer, unassigned) [6C*, N-(5-methyl-1-(1H-tetrazol-5-yl)azepan-3-yl)-1-(3-methyl-4-(trifluoromethyl)phenyl)cyclopropane-1-carboxamide]",< 4.00
8,"C[C@@H]1[C@H](NC(=O)C2(c3ccc(Cl)cc3)CC2)CCCN1c1nnn[nH]1 [Compound 40A, 1-(4-chlorophenyl)-N-[(2R,3R)-2-methyl-1-(1H-tetrazol-5-yl)-3-piperidyl]cyclopropanecarboxamide]",< 4.00
9,"C[C@H]1[C@H](NC(=O)C2(c3ccc(Cl)cc3)CC2)CCCN1c1nnn[nH]1 [Compound 40C, 1-(4-chlorophenyl)-N-[(2S,3R)-2-methyl-1-(1H-tetrazol-5-yl)-3-piperidyl]cyclopropanecarboxamide]",< 4.00
10,"Cc1ccc(C2(C(=O)N[C@H]3C[C@H](C)CCN(c4nnn[nH]4)C3)CC2)c(O)c1 (single isomer, unassigned) [67B*]",> 6.00
11,"C[C@H]1CCN(c2nnn[nH]2)C[C@H](NC(=O)C2(c3ccc(Cl)c(F)c3)CC2)C1 (single isomer, unassigned) [65C*]",4.30 to 5.00
12,"C[C@@H]1C[C@H](NC(=O)C2(c3ccc(SC(F)F)cc3)CC2)[C@H]2CC[C@@H]1N2c1nnn[nH]1 [85B*, 1-(4-((difluoromethyl)thio)phenyl)-N-((1R,2S,4R,5S)-4-methyl-8-(1H-tetrazol-5-yl)-8-azabicyclo[3.2.1]octan-2-yl)cyclopropane-1-carboxamide]",4.30 to 5.00
13,"C[C@@H]1CCN(c2nnn[nH]2)C[C@@H](NC(=O)C2(c3ccc(C(F)(F)F)cc3)CC2)C1 (single isomer, unassigned) [61C*]",4.00 to 4.30
14,"C[C@H]1CCN(c2nnn[nH]2)C[C@@H](NC(=O)C2(c3ccc(C(F)(F)F)c(F)c3O)CC2)C1 (single isomer, unassigned) [31D*, 1-(3-fluoro-2-hydroxy-4-(trifluoromethyl)phenyl)-N-(5-methyl-1-(1H-tetrazol-5-yl)azepan-3-yl)cyclopropane-1-carboxamide]",5.00 to 6.00
15,"C[C@@H]1C[C@H](NC(=O)C2(c3ccc(C4CC4(F)F)cc3)CC2)[C@H]2CC[C@@H]1N2c1nnn[nH]1 (single isomer, unassigned) [37B*]",4.30 to 5.00
16,"C[C@H]1CCN(c2nnn[nH]2)C[C@H](NC(=O)C2(c3ccc(OC(F)F)c(F)c3)CC2)C1 (single isomer, unassigned) [73C*]",4.30 to 5.00
17,"C[C@@H]1CC[C@@H](NC(=O)C2(c3ccc(Cl)cc3)CC2)CN1c1nnn[nH]1 [Compound 41C, 1-(4-chlorophenyl)-N-[(3R,6R)-6-methyl-1-(1H-tetrazol-5-yl)-3-piperidyl]cyclopropanecarboxamide]",< 4.00
18,"C[C@H]1CCN(c2nnn[nH]2)C[C@@H](NC(=O)C2(c3ccc(C(F)F)cc3)CC2)C1 (single isomer, unassigned) [5D*, 1-(4-(difluoromethyl)phenyl)-N-(5-methyl-1-(1H-tetrazol-5-yl)azepan-3-yl)cyclopropane-1-carboxamide]",4.30 to 5.00
19,"Cc1ccc(C2(C(=O)N[C@@H]3C[C@H](C)[C@H]4CC[C@@H]3N4c3nnn[nH]3)CC2)cc1 [87C*, N-((1S,2R,4S,5R)-4-methy1-8-(1H-tetrazol-5-yl)-8-azabicyclo[3.2.1]octan-2-yl)-1-(p-tolyl)cyclopropane-1-carboxamide]",< 4.00
20,"C[C@H]1CCN(c2nnn[nH]2)C[C@H](NC(=O)C2(c3ccc(Cl)c(F)c3F)CC2)C1 (single isomer, unassigned) [4C*, 1-(4-chloro-2,3-difluorophenyl)-N-(5-methyl-1-(1H-tetrazol-5-yl)azepan-3-yl)cyclopropane-1-carboxamide]",4.00 to 4.30
21,"C[C@H]1CCN(c2nnn[nH]2)C[C@H](NC(=O)C2(c3ccc(OC(F)(F)F)cc3F)CC2)C1 (single isomer, unassigned) [64C*]",4.00 to 4.30
22,"C[C@@H]1C[C@@H](NC(=O)C2(c3ccc(Cl)cc3)CC2)CN(c2nnn[nH]2)C1 [Compound 46C, 1-(4-chlorophenyl)-N-[(3R,5R)-5-methyl-1-(1H-tetrazol-5-yl)-3-piperidyl]cyclopropanecarboxamide]",4.30 to 5.00
23,"C[C@@H]1C[C@H](NC(=O)C2(c3ccc(C4CC4)cc3)CC2)[C@H]2CC[C@@H]1N2c1nnn[nH]1 [81B*, 1-(4-cyclopropylphenyl)-N-((1R,2S,4R,5S)-4-methyl-8-(1H-tetrazol-5-yl)-8-azabicyclo[3.2.1]octan-2-yl)cyclopropane-1-carboxamide]",4.00 to 4.30
24,"C[C@H]1CCN(c2nnn[nH]2)C[C@@H](NC(=O)C2(c3ccc(C4CC4)c(F)c3O)CC2)C1 (single isomer, unassigned) [32D*, 1-(4-cyclopropyl-3-fluoro-2-hydroxyphenyl)-N-(5-methyl-1-(1H-tetrazol-5-yl)azepan-3-yl)cyclopropane-1-carboxamide]",4.30 to 5.00
